{"source": "patent US9040671B2", "about": "“Methods for cancer management targeting Co-029” (Institut National de la Sante et de la Recherche Medicale …, priority 2010, dated 2015)", "molecules": {"B1": {"name": "Ts29.2: murine monoclonal antibody against Co-029 obtainable from hybridoma CNCM I-4047; VH SEQ ID NO: 1, VL SEQ ID NO: 5 (antibody, V domains shown)", "VH": "EVKVVESGGGLVQPGGSLRLSCATSGFTFTDYYMSWVRQPPGKALEWLGFIRNRVSGYTTEYSASVQGRFTISRDNSQSILYLQMNTLRAEDSATYYCARDHYGNFAMDYWGQGTSVTVSS", "VL": "DIQMTQSSSSFSVSLGDRVTITCKASEDIYNRLAWYQQKPGNAPRLLISGATSLETGVPSRFSGSGSGKDYTLSITSLQTEDVASYYCQQYWSTPFTFGSGTKLEIK", "modifications": "Synthetic VH; Synthetic VL"}}, "key": {"Is1-Co029 cells": {"system": "Is1-Co029 cells", "assay": "2D cell motility on collagen I by videomicroscopy, Is1-Co029 cells", "format": "cell-based, human", "method": "Cells and cell culture. The cell lines Isreco1, Isreco2 and Isreco3 were initially derived from a primary human colon cancer surgical specimen (Isreco1)(Duke's C, class III) and its corresponding liver and peritoneal metastases (Cajot et al., 1997). These cells were cultured in Dulbecco's modified Eagle's medium (DMEM) supplemented with 10% FCS, glutamax and antibiotics (all from Invitrogen). For experiments, tissue culture plastics were coated with rat tail Collagen I (BD Biosciences) for 1 hour at 50 μg/ml and rinsed with PBS.\nConstruction of the Co-029 and CD81 lentiviral vector and transduction of Isreco1 cells. Since Isreco1 cells were not efficiently transfected by using non retroviral methods we constructed the TRIPΔ3-EF1α-Co029 and TRIPΔ3-EF1α-CD81 plasmids by inserting the human Co029 and the human CD81 cDNA coding sequence in TRIPΔ3-EF1α vectors. […]. Is1-Co029 and Is1-CD81 cells were obtained by transducing Isrecol cells twice with concentrated lentiviral particles. Is1-Co029low cells were obtained following a single transduction.\nVideomicroscopy. Analysis of 2D cell motility on collagen I films was performed using phase contrast on an inverted microscope (Axiovert 200; Zeiss,Oberkochen, Germany) equipped with an environmental chamber with 5% CO2 in air at 37° C. The microscope was driven by the Metamorph software (Roper Scientific),and images were recorded with a Coolsnap HQ camera (Roper Scientific). Stacks of phase contrast images were collected every 15 min for 24 h at ×200 magnification. Cell migration was quantified using the manual tracking plugin of ImageJ (Rasband, 2007) Raw data were transfered to Excel for speed calculations and statistical analysis was performed by the non parametric Mann-Whitney test in Graphpad. For each position at least 10 cells were analyzed. Experiments were repeated from 2 to 10 times to verify the robustness of the results and the stability of the measurements.\nFor silencing experiments, motility measures were performed 48 hours after RNAi treatments. […]"}, "p120-catenin": {"system": "p120-catenin", "assay": "Flow cytometry of p120-catenin in permeabilized cells after RNA silencing", "format": "cell-based, human", "settings": "Is1-Co029 cells on collagen I, 48 hours after silencing", "method": "For intracellular cytometry, cells were detached using trypsin or scrapped in PBS (4° C.) then fixed for 20 min at 4° C. with 1% formaldehyde in PBS. After centrifugation, cells were incubated in methanol 100% for 10 min at −20° C. then washed in PBS and stained with 10 μg/ml of primary antibody. After washes in PBS, cells were incubated with 10 μg ml FITC-labelled secondary antibody (Beckman Coulter), washed again three times and immediately analysed.\n(§1) RNA silencing. Cells (1-3×10^5 cells in DMEM medium) were reverse transfected with synthetic si-RNA oligonucleotides using Interferrin (Ozyme) according to manufacturer's protocol.\n(§2) 6, 12 or 24 well cell culture plates were coated with rat tail collagen I. Plates were rinsed in PBS. One μl of the siRNA (10 μM) oligonucleotide mix was added to 96 μl DMEM without serum and 3-5 μl Interferrin and incubated at room temperature in each well during 20 min to allow formation of transfection complexes. Cells detached by trypsin-EDTA were layered at appropriate concentration in 400 μlDMEM medium with serum (the final concentration of si-RNA was 20 nM)."}, "E-cadherin": {"system": "E-cadherin", "assay": "Flow cytometry of surface E-cadherin after RNA silencing", "format": "cell-based, human", "settings": "Is1-Co029 cells cultured on collagen I", "method": "Immunofluorescence. For flow cytometry analysis of cell surface molecules, cells were detached using a non-enzymatic solution (Invitrogen), washed and stained with 10 μg/ml of primary antibody. After washes in culture medium, cells were incubated with 10 μg/ml-1 FITC-labelled secondary antibody (Beckman Coulter), washed again three times and fixed with 1% formaldehyde in PBS. All incubations were performed for 30 min at 4° C. Analysis of cell-surface staining was performed using a FACScalibur flow cytometer (Becton-Dickinson, San Jose, Calif., USA).\nas §1, §2"}, "Is1-Co029 tumor cells": {"system": "Is1-Co029 tumor cells", "assay": "Effect of antiCo-029 antibodies on subcutaneous tumor growth", "format": "in vivo, mice", "settings": "1 mg i.p. biweekly; for Tumor growth inhibition (T/C %): vs PBS control", "method": "Effect of antiCo-029 antibodies on subcutaneous tumor growth. In order to realize the animal experiments, a large amounts of purified mAbs was prepared. The yield of mAb TS29.2 (IgG2b) was of approximately 5 mg purified mAb/ml ascitis. Mice produce a mean of 10 ml ascitis/mouse.\nAscitis were clarified by centrifugation and 0.45 μm filtered. The mAbs were purified by using the Biosepra MEP HyperCel* Hydrophobic Charge Induction Chromatography (HCIC) Sorbent, dialysed against PBS and the purity checked by gel electrophoresis and Coomassie Blue coloration. Fractions were aliquoted and frozen at −20° C.\nThe effect of the antibodies on tumor growth was evaluated by subcutaneous implantation of tumor cells issued from colon carcinoma cell lines, followed by repeated injections of monoclonal antibodies with appropriate controls.\nTen Nude mice were injected subcutaneously with 10^7 Is1-Co029 tumor cells and divided in two groups, antibody treated and PBS control. Each group received an i.p. injection of either 1 mg Ts29.2 or the same volume of PBS and biweekly subsequent injections of 1 mg Ts29.2 or PBS i.p., for a total of nine injections. The size of the tumor was determined by the formula (π/6×length×width×thickness).\nTumor growth inhibition (T/C %) was defined as the ratio of the median tumor volume for the treated vs. control group. It will be calculated as T/C %=[(median tumor volume of treated group at day X)/(median tumor volume of control group at day X)]×100."}}, "data": [{"molecule": "si-RhoA: si-RNA to RhoA, GAACUAUGUGGCAGAUAUCdTdT (SEQ ID NO: 23), Dharmacon (listed as RNA, chemistry not fully specified) [reference compound]", "values": [{"measurement": "effect on motility of Is1-Co029 cells, in words", "setting": "Is1-Co029 cells; sparse cells on collagen I, agent alone", "value": "same effect on motility as p120-catenin silencing"}]}, {"molecule": "si-Co029: si-RNA to Co-029, GGUAUCCUAGGAGCUGUUUdTdT (SEQ ID NO: 10) (listed as RNA, chemistry not fully specified)", "values": [{"measurement": "effect on the acceleration of Is1-Co029 cells induced by si-p120, in words", "setting": "Is1-Co029 cells; cells silenced for p120ctn", "value": "reversed"}, {"measurement": "effect on the increased motility induced by si-Ecad, in words", "setting": "Is1-Co029 cells; co-silencing with si-Ecad", "value": "suppressed"}]}, {"molecule": "si-p120: si-RNA to p120ctn; si-p120a GCCAGAGGUGGUUCGGAUAdTdT (SEQ ID NO: 20) used throughout the study (listed as RNA, chemistry not fully specified)", "values": [{"measurement": "reduction of the amount of p120ctn", "setting": "p120-catenin", "value": 80, "unit": "%"}, {"measurement": "reduction of surface E-cadherin", "setting": "E-cadherin", "value": 50, "unit": "%"}]}, {"molecule": "B1", "values": [{"measurement": "growth of Is1-Co029 cells (subcutaneous tumor), in words", "setting": "Is1-Co029 tumor cells; Nude mice", "value": "inhibits significantly"}, {"measurement": "Tumor growth inhibition (T/C %)", "setting": "Is1-Co029 tumor cells; day 43 (J43), nine injections", "value": 36, "unit": "%"}, {"measurement": "Tumor growth inhibition (T/C %)", "setting": "Is1-Co029 tumor cells; day 50 (J50), nine injections", "value": 35, "unit": "%"}, {"measurement": "mean tumor size", "setting": "Is1-Co029 tumor cells; day 50, nine injections, PBS control 557±141.6", "value": "195.7±47.7", "unit": "mm^3"}]}]}
